Assay results as given in patent US5968751A, “Method for detecting the presence of protein C antibody in a fluid sample” (The Scripps Research Institute, priority 1997, dated 1999).
Where two headings read alike, the source gives them in different places. No end group written: not given here.

Columns and labels:
Format in all cases: biochemical
Factor Xa = target: T1, Factor Xa (Homo sapiens, UniProt P00742); test: Factor Xa clotting activity in NHP without added APC (Factor Xa-1 Stage clotting assay); details: for IC50: read-out: 50% inhibition of Factor Xa clotting activity
T1 construct: purchased Enzyme Research Laboratories, Southbend, Ind
Procedure: FIG. 1 illustrates factor Xa clotting activity in the presence of PC311-325. The assay was performed as described in Example 5a6). Solid circles with solid lines depict factor Xa activity of 0.15 nM factor Xa in the presence of PC311-325 and solid triangles with dashed lines depict factor Xa activity in the presence of the control peptide.
FIG. 2 illustrates factor Xa clotting activity in the presence of PC142-155. The assay was performed as described in Example 5a6). Solid circles with solid lines depict factor Xa activity of 0.15 nM factor Xa in NHP in the presence of PC142-155 and solid triangles with dashed lines depict factor Xa activity in the presence of the scrambled peptide.
To determine the effect of the APC-inhibiting peptides, PC311-325 and PC142-155, on the amidolytic activity of Factor Xa, amidolytic assays as described for APC in Example 5a3 were performed using 0.15 nM Factor Xa in the presence of increasing amounts of peptide. Peptide PC311-325 ranged in concentration from 0 to 100 μM whereas peptide PC142-155 ranged in concentration from 0 to 50 μM.
For the assay, 100 μl of 0.15 nM factor Xa, prepared in Example 5a5) were admixed with separate aliquots of either peptide prepared in TBS-BSA at pH 7.4 containing 0.02% NaN3 and 2 mM CaCl2 to form APC-peptide admixtures. After maintenance of the admixtures for 30 minutes at 37° C., 50 μl of 2.4 mM S-2222 in the same buffer were admixed to initiate the amidolytic reaction. The hydrolysis of the substrate was measured as described before.
The Factor Xa-1 Stage assay was conducted as described in Example 5a6). In that assay, the IC50 for peptides PT557-571. PT463-478, PT473-487, PT481-495, X404-418, X415-429 and X329-344 were 50, >500, 25, >500, 50, 115, and 500, respectively.

prothrombinase = prothrombinase assay with purified proteins; details: for inhibition of prothrombinase activity in the absence of Factor Va: up to 200 μM PC311-325, up to 250 μM PC142-155
Procedure: FIG. 3 illustrates prothrombinase activity in the presence of PC311-325. The assay was performed using 1 nM factor Xa, 0.4 nM factor Va, 1.2 μM prothrombin and […] factor Xa in the absence of factor Va in TBS-BSA, 2.5 mM CaCl2, pH 7.4. Unless otherwise specified all prothrombinase assays were carried out in the presence of 50 μM phospholipid vesicles. In all cases solid symbols indicate prothrombinase activity in the presence of factor Va whereas open symbols indicate prothrombinase activity in the […] of factor Va. Solid circles with solid lines indicate prothrombinase activity (with factor Va) in the presence of PC311-325, solid squares with solid lines indicate prothrombinase activity (with factor Va) in the presence of PC311-325 but in the absence of phospholipid vesicles and solid triangles with dashed lines indicate prothrombinase activity (with factor Va) in the presence of the control peptide. Open circles with solid lines denote prothrombinase activity (without factor Va) in the presence of PC311-325 and open triangles with dashed lines denote prothrombinase activity (without factor Va) in the presence of the control peptide.
FIG. 4 illustrates prothrombinase activity in the presence of PC142-155. The assay was performed using 1 nM factor Xa, 0.4 nM factor Va, 1.2 μM prothrombin and 2.5 nM factor Xa in the absence of factor Va in TSB-BSA, 2.5 mM CaCl2, 50 μM phospholipid vesicles, pH 7.4. In all cases solid symbols indicate prothrombinase activity in the […] of factor Va. Solid circles with solid lines indicate prothrombinase activity (with factor Va) in the presence of PC142-155 and solid triangles with dashed lines indicate prothrombinase activity (with factor Va) in the presence of the scrambled peptide. Open circles with solid lines denote prothrombinase activity (without factor Va) in the presence of PC142-155 and open triangles with dashed lines denote prothrombinase activity (without factor Va) in the presence of the scrambled peptide.
Factor Va was determined via its cofactor activity in the activation of prothrombin by Factor Xa. Amounts of Factor Xa (Enzyme Research Lab.), phospholipid vesicles and prothrombin (purified as described by Stenflo, J. Biol. Chem., 25:355-363, (1976) from a barium citrate plasma precipitate purified by DEAE-sephadex chromatography) present in the assay were such that the rate of prothrombin activation was linearly dependent on factor Va and constant over the time course of the experiment. The molar concentration of Factor Xa was determined by active site titration as described by Chase et al., Biochem. Biophys. Res. Commun., 29:508-514 (1967). The molecular weights and extinction coefficients (E280 nm/mg/ml) used in the calculation of protein concentrations were as follows: prothrombin, 72,000 and 1.44; APC, 62,000 and 1.45; and Factor X, 65,300 and 1.16.
In a typical experiment, Factor Va was assayed as follows. An aliquot of the solution containing Va was admixed to a solution containing prothrombin, phospholipids and calcium in individual wells of a 96-well microtiter plate. Prothrombin activation was initiated with the mixture of Factor Xa to the Va-containing wells to form a reaction admixture. Final concentrations of reagents in the reaction mixture were the following: 1.2 μM prothrombin, 1 nM Xa, 0-0.4 nM Va, 50 μM phospholipid-vesicles (phosphatidylserine 20%/phosphatidylcholine 80%; M/M), in 0.05 M Tris-HCl at pH 7.4 containing 0.1 M NaCl, 0.5% BSA and 2.0 mM CaCl2. The reaction was maintained at 22° C. At one minute time intervals from initiation of the reaction, 20 μl aliquots of the reaction admixture were withdrawn and admixed to wells of an ELISA plate containing 80 μl TBS-BSA and 10 mM EDTA at pH 8.0 resulting in the quenching of the prothrombinase reaction. […]

thrombin = thrombin (Homo sapiens, UniProt P00734); test: thrombin amidolytic activity towards chromogenic substrates
[1] = NHP, 0.15 nM factor Xa, no added APC

T1 sequence (P00742 41-179 limits assumed): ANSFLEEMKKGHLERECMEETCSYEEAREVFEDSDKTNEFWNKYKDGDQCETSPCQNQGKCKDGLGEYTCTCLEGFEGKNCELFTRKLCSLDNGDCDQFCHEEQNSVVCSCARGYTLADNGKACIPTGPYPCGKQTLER
T1 sequence (P00742 235-488 limits assumed): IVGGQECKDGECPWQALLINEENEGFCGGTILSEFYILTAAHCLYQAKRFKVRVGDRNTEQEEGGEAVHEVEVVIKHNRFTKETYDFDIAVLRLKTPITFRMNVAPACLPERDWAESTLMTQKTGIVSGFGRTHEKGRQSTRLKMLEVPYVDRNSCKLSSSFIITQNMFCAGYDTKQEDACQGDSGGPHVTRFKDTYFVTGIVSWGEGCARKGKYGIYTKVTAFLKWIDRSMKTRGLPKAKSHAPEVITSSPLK

Row | IC50 (Factor Xa; clotting assays in plasma) [µM] | inhibition of prothrombinase activity (prothrombinase; 100 μM peptide, presence of Factor Va) [%] | inhibition of Factor Xa activity (Factor Xa; 50 μM peptide, NHP) [%] | inhibition of Factor Xa activity (Factor Xa; 50 μM peptide, NHP, listed as scrambled control peptide) [%] | inhibition of Factor Xa activity (Factor Xa; 100 μM peptide, NHP) [%] | Compound | IC50 (Factor Xa; [1]) [µM] | IC50 (prothrombinase; presence of Factor Va, read-out: 50% inhibition of prothrombinase activity) [µM] | inhibition of prothrombinase activity in the absence of Factor Va (prothrombinase) | effect on thrombin amidolytic activity towards chromogenic substrates (thrombin) | inhibition of prothrombinase activity in the presence of Factor Va (prothrombinase)
1 | 5 | – | – | – | – | CSCC[C@H](NC(=O)[C@H](CCCNC(=N)N)NC(=O)[C@H](CCCCN)NC(=O)[C@H](Cc1c[nH]c2ccccc12)NC(=O)[C@@H]1CCCN1C(=O)[C@H](CCCNC(=N)N)NC(=O)CN)C(=O)N[C@@H](CCC(=O)O)C(=O)N[C@@H](CCCCN)C(=O)N[C@@H](CCCCN)C(=O)N[C@@H](CCCNC(=N)N)C(=O)N[C@@H](CO)C(=O)N[C@@H](Cc1c[nH]cn1)C(=O)N[C@@H](CC(C)C)C(=O)N[C@@H](CS)C(N)=O [PC142-155, Gly-Arg-Pro-Trp-Lys-Arg-Met-Glu-Lys-Lys-Arg-Ser-His-Leu] | 10 | – | – | – | –
2 | – | – | – | – | – | KRNRTFVLNFIKIPV-NH2 [PC311-325, Lys-Arg-Asn-Arg-Thr-Phe-Val-Leu-Asn-Phe-Ile-Lys-Ile-Pro-Val] | 7 | 8 | very little if any significant inhibition | no significant effect | –
3 | – | 40 | 40 | 37 | – | MHKLREGKWRPKSR [Scrambled peptide, reference compound] | – | – | – | no significant effect | small amount of inhibition
4 | – | – | – | – | 30 | VKFTIRVFNPRNLKI [Control Peptide, reference compound] | – | – | very little if any significant inhibition | – | very little if any significant inhibition
